Patent US4822800A (Ortho Pharmaceutical Corporation, priority 1986, dated 1989)
“Also recorded” adds a separate entry of the source. Counter-ions that a name gives are not always drawn. Like-named read-outs stand apart in the source and are kept apart here.

Assays:
[1] = tested on: adult mongrel dogs; assay: acute in vivo cardiotonic activity in anesthetized dogs; design: species or system dog (adult mongrel); conditions: for change in vivo at 0.1 mg/kg / change in vivo at 1.875 mg/kg / change in vivo at 3.75 mg/kg / change in vivo at 0.875 mg/kg / change in vivo at 8.75 mg/kg: Canis lupus familiaris, cardiotonic, relative to controls; for change in vivo at 0.1 mg/kg: dose 0.100 mg/kg intravenous; for change in vivo at 1.875 mg/kg: dose 1.875 mg/kg intravenous; for change in vivo at 3.75 mg/kg: dose 3.75 mg/kg intravenous; for change in vivo at 0.875 mg/kg: dose 0.875 mg/kg intravenous; for change in vivo at 8.75 mg/kg: dose 8.75 mg/kg intravenous
Protocol: The acute in vivo cardiotonic activity of compounds prepared according to the present invention was determined according to a modification of the procedure described by Alousi et al., Circ. Res., 45, 666 (1979).
In particular, adult mongrel dogs were anesthetized with sodium pentobarbital and were artificially respired. Arterial pressure was monitored via a femoral artery, and the pulse pressure was used to trigger a cardiotachometer for heart rate. Left ventricular pressure was determined with a Millar catheter, and dP/dt (the change in ventricular pressure with time) was derived. Cardiac output was determined by measuring ascending aortic blood flow with an electromagnetic flow probe, and myocardial contractile force was measured with a Walton Brodie strain gauge sutured to the right ventricle. Lead II EKG was also recorded.
A standard dose (10 μg/kg/min) of dopamine was administered to assess myocardial responsiveness.
Compounds of the invention were administered by intravenous infusion or bolus […] administration, and the effects on cardiovascular parameters were determined.
Dose related effects of the test compound on blood pressure (BP), heart rate (HR), maximum change in left ventricular pressure with time (dP/dt max),% change in cardiac force (CF) and the increase in mean arterial blood pressure relative to controls (MABP) were compared to pretreatment control values, expressed as a% change and rated for activity.

[2] = target: T1, Phosphodiesterase fraction III (Canis lupus familiaris, UniProt A0A8I3NYE0); assay: inhibition of phosphodiesterase fraction III activity; type: biochemical, canine (heart); conditions: for IC50: cyclic AMP 0.10-1.0 uM, pH 7.4, canine heart enzyme; for phosphodiesterase fraction III inhibition (in words): summary of Table 5
T1 construct: isolated as an isozyme from the crude canine heart homogenate; from tissue; host or cells: canine heart (crude homogenate, ion exchange chromatography, third and last PDE peak)
T1 sequence (A0A8I3NYE0 1-1135): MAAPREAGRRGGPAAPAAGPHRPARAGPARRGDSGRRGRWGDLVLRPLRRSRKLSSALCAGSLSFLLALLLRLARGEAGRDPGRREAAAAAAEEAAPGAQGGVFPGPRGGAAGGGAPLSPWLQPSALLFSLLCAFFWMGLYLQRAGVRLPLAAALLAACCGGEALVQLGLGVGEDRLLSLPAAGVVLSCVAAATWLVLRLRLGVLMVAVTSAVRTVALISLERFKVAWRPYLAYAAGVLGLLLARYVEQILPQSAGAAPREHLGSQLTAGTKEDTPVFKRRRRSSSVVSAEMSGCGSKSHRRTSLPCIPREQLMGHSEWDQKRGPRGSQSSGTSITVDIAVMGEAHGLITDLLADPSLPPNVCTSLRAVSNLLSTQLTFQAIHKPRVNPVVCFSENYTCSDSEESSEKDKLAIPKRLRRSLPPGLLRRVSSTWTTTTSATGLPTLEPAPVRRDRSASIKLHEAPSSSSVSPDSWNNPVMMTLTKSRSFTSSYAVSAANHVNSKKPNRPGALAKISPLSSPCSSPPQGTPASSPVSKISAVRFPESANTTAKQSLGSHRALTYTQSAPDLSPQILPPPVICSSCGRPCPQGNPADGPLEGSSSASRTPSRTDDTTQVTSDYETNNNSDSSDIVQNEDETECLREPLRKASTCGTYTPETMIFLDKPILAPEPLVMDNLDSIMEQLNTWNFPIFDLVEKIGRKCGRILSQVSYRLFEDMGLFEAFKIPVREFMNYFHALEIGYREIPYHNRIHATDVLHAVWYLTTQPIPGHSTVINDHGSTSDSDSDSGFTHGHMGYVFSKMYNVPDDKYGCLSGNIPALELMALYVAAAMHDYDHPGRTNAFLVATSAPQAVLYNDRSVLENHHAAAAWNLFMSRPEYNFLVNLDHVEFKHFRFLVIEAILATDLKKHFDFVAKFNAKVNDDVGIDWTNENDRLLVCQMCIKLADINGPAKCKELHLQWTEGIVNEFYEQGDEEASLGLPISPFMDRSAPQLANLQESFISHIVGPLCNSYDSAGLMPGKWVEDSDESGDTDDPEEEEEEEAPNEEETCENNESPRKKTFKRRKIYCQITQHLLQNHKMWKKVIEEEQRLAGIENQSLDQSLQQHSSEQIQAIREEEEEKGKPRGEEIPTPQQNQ

[3] = tested on: adult mongrel dogs; assay: renal vasodilating activity in anesthetized dogs; type: in vivo, dog (adult mongrel); conditions: for change in vivo at 5 mg/kg / change in vivo at 13.9 mg/kg / change in vivo at up to 13.9 mg/kg: Canis lupus familiaris, renal vasodilator, relative to controls; for change in vivo at 5 mg/kg: dose 5.0 mg/kg intravenous; for change in vivo at 13.9 mg/kg / change in vivo at up to 13.9 mg/kg: dose 13.9 mg/kg intravenous
Protocol: Goldberg et al, J. Pharmacol. Exp. Ther., 163, 188 (1968), performed an investigation of the structural requirements for dopamine-like renal vasodilation of phenethylamines and apomorphine. The following procedure is a variation of the assay described in that report.
Adult mongrel dogs were anesthetized and surgically prepared for electromagnetic measurement of renal artery blood flow. A carotid artery was cannulated for measuring arterial blood pressure, and drugs were administered intravenously. Heart rate was monitored with a cardiotachometer. Renal vascular resistance was calculated as the ratio of mean arterial blood pressure/renal artery blood flow. Dopamine was infused intravenously at 3 μg/kg/min for ten minutes (at an infusion rate of about 1 ml/min) to determine responsiveness of each dog to renal dopamine receptor stimulation. Cumulative dose-response data were obtained by infusing a compound of this invention at progressively increasing (usually three-fold) infusion rates, each dose being infused for five minutes. The maximum % increase from pre-drug control in renal artery blood flow (or a decrease in renal vascular resistance) was determined for each infusion dose.
RBF values are percent change in renal blood flow. RVR values are percent change in renal vascular resistance. MABP and HR are percent changes in mean arterial blood pressure and heart rate, respectively, relative to controls.

[4] = read-out: MABP (mean arterial blood pressure)
[5] = read-out: dP/dt (maximum change left ventricular pressure with time)
[6] = read-out: RBF (renal blood flow)
[7] = read-out: RVR (renal vascular resistance)

Work on `COc1cc2c(C)nc(O)c(C)c2cc1OC` [AB] yielded a change in vivo at 0.1 mg/kg ([1]; read-out: CF (cardiac force)) of 80%, a change in vivo at 0.1 mg/kg ([1]; read-out: HR (heart rate)) of 15% and a change in vivo at 0.1 mg/kg [1, 4] of -4%. For the same compound, the change in vivo at 0.1 mg/kg [1, 5] was 48%, the IC50 [2] was 8.3 µM and the “phosphodiesterase fraction III inhibition (in words)” value [2] was “inhibit phosphodiesterase fraction III activity”.

`COc1cc2c(CCl)nc(O)c(Cl)c2cc1OC` [AD] showed a change in vivo at 1.875 mg/kg ([1]; read-out: CF (cardiac force)) of 111%, a change in vivo at 1.875 mg/kg ([1]; read-out: HR (heart rate)) of 21% and a change in vivo at 1.875 mg/kg [1, 4] of -3%. The change in vivo at 1.875 mg/kg [1, 5] was 106%, the “cardiotonic activity (in words)” value ([1]; summary of Table 4) was “cardiotonic properties” and the IC50 [2] was 11 µM. For the same compound, the “phosphodiesterase fraction III inhibition (in words)” value [2] was “inhibit phosphodiesterase fraction III activity; also recorded: phosphodiesterase fraction III inhibiting properties”, the change in vivo at 5 mg/kg [3, 6] was 16% and the change in vivo at 5 mg/kg [3, 7] was -32%. The “renal vasodilating activity (in words)” value ([3]; summary of Table 4) was “renal vasodilating properties”.

Compound `Cc1nc(O)c(CCC(=O)O)c2cc(O)c(O)cc12` [Compound G, 4-β-Carboxyethyl-3,6,7-trihydroxy-1-methyl-3-isoquinoline Hydrobromide] has a change in vivo at 3.75 mg/kg ([1]; read-out: CF (cardiac force)) of 82%, a change in vivo at 3.75 mg/kg ([1]; read-out: HR (heart rate)) of 13% and a change in vivo at 3.75 mg/kg [1, 4] of -10%. For the same compound, the change in vivo at 3.75 mg/kg [1, 5] was 32%, the change in vivo at 13.9 mg/kg ([3]; read-out: HR (heart rate)) was -3% and the change in vivo at 13.9 mg/kg [3, 4] was -5%. It also gave a change in vivo at 13.9 mg/kg [3, 6] of 11% and a change in vivo at up to 13.9 mg/kg [3, 7] of -14%.

`COC(=O)CCc1c(O)nc(C)c2c(OC)c(OC)c(OC)cc12` [Compound J, 4-carbomethoxyethyl-3-hydroxy-6,7,8-trimethoxy-1-methylisoquinoline] showed a change in vivo at 0.875 mg/kg ([1]; read-out: CF (cardiac force)) of 22%, a change in vivo at 0.875 mg/kg ([1]; read-out: HR (heart rate)) of 8% and a change in vivo at 0.875 mg/kg [1, 4] of -4%. It also gave a change in vivo at 0.875 mg/kg [1, 5] of 20%, a change in vivo at 13.9 mg/kg [3, 4] of -1% and a change in vivo at 13.9 mg/kg [3, 6] of 18%. It also gave a change in vivo at up to 13.9 mg/kg [3, 7] of -23%.

For `COC(=O)CCc1c(O)ncc2cc(OC)c(OC)cc12` [Compound Q, 4-(β-Carbomethoxyethyl)-3-hydroxy-6,7-dimethoxyisoquinoline], the change in vivo at 0.875 mg/kg ([1]; read-out: CF (cardiac force)) was 53%, the change in vivo at 0.875 mg/kg ([1]; read-out: HR (heart rate)) was 7% and the change in vivo at 0.875 mg/kg [1, 4] was -4%. For the same compound, the change in vivo at 0.875 mg/kg [1, 5] was 24%, the change in vivo at 13.9 mg/kg [3, 6] was 42% and the change in vivo at up to 13.9 mg/kg [3, 7] was -23%.

For `COc1ccc2cc(O)ncc2c1OC` [D], the change in vivo at 8.75 mg/kg ([1]; read-out: CF (cardiac force)) was 60%, the change in vivo at 8.75 mg/kg ([1]; read-out: HR (heart rate)) was 13% and the change in vivo at 8.75 mg/kg [1, 4] was -7%. It also gave a change in vivo at 8.75 mg/kg [1, 5] of 34%, a change in vivo at 13.9 mg/kg ([3]; read-out: HR (heart rate)) of 3% and a change in vivo at 13.9 mg/kg [3, 4] of -11%. It also gave a change in vivo at 13.9 mg/kg [3, 6] of 21% and a change in vivo at up to 13.9 mg/kg [3, 7] of -27%.

For `COc1cc2cc(O)nc(C)c2c(OC)c1OC` [H], the change in vivo at 0.875 mg/kg ([1]; read-out: CF (cardiac force)) was 76%, the change in vivo at 0.875 mg/kg ([1]; read-out: HR (heart rate)) was 13% and the change in vivo at 0.875 mg/kg [1, 4] was -2%. The change in vivo at 0.875 mg/kg [1, 5] was 45%, the change in vivo at 13.9 mg/kg ([3]; read-out: HR (heart rate)) was 20% and the change in vivo at 13.9 mg/kg [3, 4] was -12%. The change in vivo at 13.9 mg/kg [3, 6] was 41% and the change in vivo at up to 13.9 mg/kg [3, 7] was -38%.

For `CCc1nc(O)c(CCC(=O)OC)c2cc(OC)c(OC)cc12` [K], the change in vivo at 0.875 mg/kg ([1]; read-out: CF (cardiac force)) was 47%, the change in vivo at 0.875 mg/kg ([1]; read-out: HR (heart rate)) was 10% and the change in vivo at 0.875 mg/kg [1, 4] was -3%. It also gave a change in vivo at 0.875 mg/kg [1, 5] of 33%, a change in vivo at 13.9 mg/kg [3, 6] of 28% and a change in vivo at up to 13.9 mg/kg [3, 7] of -28%.

`COC(=O)C(C)Cc1c(O)nc(C)c2cc(OC)c(OC)cc12` (centres unmarked) [O] gave a change in vivo at 1.875 mg/kg ([1]; read-out: CF (cardiac force)) of 100%, a change in vivo at 1.875 mg/kg ([1]; read-out: HR (heart rate)) of 21% and a change in vivo at 1.875 mg/kg [1, 4] of 0%. For the same compound, the change in vivo at 1.875 mg/kg [1, 5] was 67%, the change in vivo at 13.9 mg/kg [3, 6] was 15% and the change in vivo at up to 13.9 mg/kg [3, 7] was -18%.

`COC(=O)Cc1c(O)nc(C)c2cc(OC)c(OC)cc12` [W] showed a change in vivo at 0.875 mg/kg ([1]; read-out: CF (cardiac force)) of 42%, a change in vivo at 0.875 mg/kg ([1]; read-out: HR (heart rate)) of 6% and a change in vivo at 0.875 mg/kg [1, 4] of -1%. The change in vivo at 0.875 mg/kg [1, 5] was 28%, the change in vivo at 13.9 mg/kg [3, 6] was 64% and the change in vivo at up to 13.9 mg/kg [3, 7] was -62%.
